Test results taken from US20060052459A1, “Antifungal medicaments comprising arylamidine derivatives” (priority 2002, published 2006).

Legend:
[1] = test system: Candida albicans strains IP 48.72 (ATCC 10231); assay: In vitro antifungal growth inhibition on microtitre plates (optical density 590 nm), compounds alone or as mixtures (Wadley method); format: cell-based; settings: second study
Protocol: (§1) The following fungi were used for this study: Candida albicans strains IP 48.72 (ATCC 10231) and Aspergillus fumigatus strain IP 864.64 obtained from the Collection Nationale de Cultures de Microorganismes (CNCM) of the Institut Pasteur. The strains are cultured on Yeast Extract-Peptone-Dextrose (YEPD) agar medium comprising 0.5% yeast extract, 0.5% bactopeptone, 2% glucose and 2% agar at 30° C. and in the dark.
(§2) All these compounds were prepared in a DMSO solution at a final concentration of 100 mg/ml. The stock solutions are stored at −20° C. up to the time of use.
(§3) The trials are carried out in RPMI 1640 medium with no sodium bicarbonate, but with L-glutamine buffered with 0.165 mol per litre of 3-[N-morpholino]propanesulphonic acid (MOPS), enriched (<>) or otherwise (<>) with 2% glucose. The pH of this medium is adjusted to 7.0. The medium is sterilized by filtration (0.22 μm) and stored at 4° C. up to the time of use.
(§4) All the antifungal tests are carried out on microtitre plates. The initial suspensions of spores are prepared in a sterile solution containing 0.85% NaCl, supplemented with Tween 80 at 0.01%. These initial suspensions are then diluted in the culture medium (RPMI 1640 enriched or otherwise with 2% glucose) to a final concentration of 10^4 spores per ml. The measurements of viability of each inoculum are verified by subcultures of a volume of 300 μl on YEPD agar medium.
(§5) The antifungal compounds are tested in a range of concentrations ranging from 0.026 to 100 μg of active ingredient/ml. These antifungal compounds are then diluted in RPMI 1640 medium enriched or otherwise with 2% glucose. A final DMSO concentration of 0.2% is used throughout the measurements. Each trial is carried out on a series of dilutions of antifungal compounds, in duplicate. The antifungal dilutions (0.1 ml) and the fungal inoculum (0.1 ml) are added to each of the wells of the microtitre plate. The plates are then read with a spectrophotometer (ELX 800UV Bio-Tek Instruments, Inc) at a wavelength of 590 nm. The plates are read immediately after (t=0) and after 48 hours' incubation at 30° C. and in the dark. The optical density values obtained are correlated with fungal growth between the times t=0 and t=48 hours. The optical density values are used to calculate the percentage inhibition of growth for each concentration of antifungals by comparison with the control. The values are then used to plot a dose-response curve and the EC50 value is determined for each fungus and each compound with the aid of the Grafit 5.0® software (Erithacus software Ltd).
(§6) The method which was used to measure the type of interaction existing between the antifungal compounds in the form of mixtures is the Wadley method.
(§7) In the Wadley approach, the dose-response curve for each of the compounds A and B, and for the mixture AB, is constructed. The EC50 is calculated for each compound taken individually and for the mixture. If a and b are the absolute quantities of the compounds A and B in the mixture (a=1, b=1, a+b=2 under our conditions), the expected effective concentration (EC50exp) may be calculated in the following manner: EC50exp=(a+b)/[a/EC50A)+b/(EC50B)
(§8) The Wadley approach may be used to estimate the type of interaction existing between the fungal compounds, regardless of their concentration. Its reliability is not dependent on the percentage inhibition. The type of interaction between two compounds is given by the level of interaction (LI) which corresponds to the ratio between the expected effective concentration (EC50exp) and that observed (EC50obs) of the mixture. The nature of the interaction obtained by the Wadley formula is presented in Table 1 (see U. Gisi, Synergistic interaction in fungicide mixtures, 1996. Phytopathology 86, 1273-1279) below.
(§9) The experimental conditions are the same as previously described.

[2] = test system: Aspergillus fumigatus strain IP 864.64; assay: as above; format: cell-based; settings: second study
Protocol: as §1, §2, §3, §4, §5, §6, §7, §8, §9

EC50 ([1]; Candida albicans, ATCC10231, 48 h, strain IP 48.72, RPMI 1640 medium enriched with 2% glucose, 48 hours at 30° C., read-out: EC50): 0.205 µg/mL
EC50 ([2]; Aspergillus fumigatus, IP864.64, 48 h, strain IP 864.64, RPMI 1640 medium enriched with 2% glucose, 48 hours at 30° C., read-out: EC50): 0.088 µg/mL
Structure (SMILES): CCN(C)C=Nc1cc(C)c(Oc2ccc(C#N)c(C(F)(F)F)c2)cc1C [Compound I.2, N-ethyl-N-methyl-N′-[4-(4-cyano-3-trifluoromethylphenoxy)-2,5-dimethylphenyl]imidoformamide]
efficacy in vitro compared with compounds I.1 and II.1 ([1]; enriched medium): better efficacy
efficacy in vitro compared with compounds I.1 and II.2 ([2]; enriched medium): twice higher
